Measurements: patent US6903129B2, “D-proline prodrugs” (Hoffman-La Roche Inc., priority 2001, dated 2005)

How the values were obtained:
[1] = Rat liver microsome incubation; format: in vitro ADME; settings: for Rat microsomes Clearance: intrinsic clearance, rat liver microsomes 1.0 mg prot/mL, prodrug 10 μM, 37° C.; for Rat microsomes MAB %: maximal achievable bioavailability (1−E), extrapolated from rat microsomal clearance
Procedure: (§1) Test Description for Microsome Incubation
(§2) Rat and human liver microsome incubations were conducted on-line in a CTC PAL autosampler in order to avoid any degradation of the prodrugs during the work-up. Incubation mixtures consisted of liver microsomes (rat 1.0 mg prot/mL or human 2.0 mg prot/mL), prodrug 10 μM, MgCl2 (3.3 mM), and an NADPH regenerating system consisting of glucose-6-phosphate dehydrogenase, NADPH and glucose-6-phosphate equivalent to 1 mM NADPH) in a total volume of 1.0 mL of potassium phosphate buffer 100 mM pH 7.4.
(§3) Reactions were initiated by addition of the NADPH regenerating system at 37° C. At time 1, 5, 9, 13, 17, 21, 25, and 29 min a 5 μL aliquot was directly analysed on a HPLC-MS/MS system comprising of a HP 1100 quaternary pump with degasser and a PE-Sciex API-2000 MS/MS spectrometer. The analytical column was a Waters Symmetry Shield RP8 (2.1*50 mm with a […] particle size). A polarity non linear gradient from phase A (MeOH/Ac. Form.1% 20/80) to phase B (MeOH) was applied for a total run time of 2 minutes at a flow rate of 0.25 mL/min. The PE-Sciex API-2000 MS/MS spectrometer was used for detection of both the prodrugs and the parent compound (R)-1-[6-[(R)-2-carboxy-pyrrolidin-1-yl]-6-oxo-hexanoyl]-pyrrolidine-2-carboxylic acid. In vivo metabolic clearance was predicted according to published procedures (Houston, J. B., Biochem. Pharmacol., 47:1469-1479, 1994). In brief, the intrinsic clearance (Clearance, Table 1) was calculated from the measured in vitro half-life taking into account incubation volume and microsomal protein used for the in vitro incubation. The intrinsic clearance was expressed in terms of ul/min/mg microsomal protein. For in vivo extrapolations, the hepatic extraction ratio (E) was calculated. Reported below is the %MAB value (maximal achievable bioavailability), which is equal to 1−E.

[2] = Human liver microsome incubation; format: in vitro ADME; settings: for Human microsomes Clearance: intrinsic clearance, human liver microsomes 2.0 mg prot/mL, prodrug 10 μM, 37° C.; for Human microsomes MAB %: maximal achievable bioavailability (1−E), extrapolated from human microsomal clearance
Procedure: as §1, §2, §3

[3] = Stability of the prodrugs in plasma samples; format: in vitro ADME, rat; settings: half-life (50% conversion of the prodrug), 10 μM, 37° C.
Procedure: Stability of the Prodrugs in Blood and Plasma Samples
Plasma and blood samples from different species were merged with equimolar amounts (10 μM) of prodrug and parent drug in DMSO and incubated for different time intervals (up to 60 min.) at 37° C. The reaction was stopped by protein precipitation with acetonitrile followed by centrifugation (20 min., 1800 g at 10° C.). The supernatant was immediately subjected to analysis.
The concentration of formed parent compound was determined by LC-MS. The chromatographic system was comprised of a trapping column (X-Terra™ MS C8 3.5 μm, 10×2.1 mm i.d., Waters) and an analytical column (Symmetry C8 3.5 μm, 50×2.1 mm i.d., Waters) connected to a SCIEX API 2000 triplequadrupole mass spectrometer equipped with a turbo ion spray interface. The mobile phases were 1% aqueous formic acid and acetonitrile. The parent compound together with its deuterium labelled internal standard was enriched on the trapping column and eluted with a fast gradient. The retention time of (R)-1-[6-[(R)-2-carboxy-pyrrolidin-1-yl]-6-oxo-hexanoyl]-pyrrolidine-2-carboxylic acid was ˜2.1 min. The effluent (300 μl min^−1) was passed to the turbo ion spray interface without splitting and was nebulized using nitrogen. Multiple reaction monitoring (MRM) in positive mode Was used for mass spectrometric detection. The transitions for the parent were 341.1 [M+H]^+ to 226.1 [Fragment]^+ and for the internal standard 349.1 [M+H]^+ to 234.1 [Fragment]^+. The results were expressed as half-lifes (50% conversion of the prodrug), using the data of the prodrug at time-point 0 min. as […].

Structure (SMILES)	Rat microsomes Clearance [1]	Rat microsomes MAB % [1] [%]	Human microsomes Clearance [2]	Human microsomes MAB % [2] [%]	Rat plasma tl/2 hours [3]
CCN(CC)C(=O)COC(=O)[C@H]1CCCN1C(=O)CCCCC(=O)N1CCC[C@@H]1C(=O)OCC(=O)N(CC)CC [Example 7, (R)-1-{6-[(R)-2-(Diethylcarbamoyl-methoxycarbonyl)-pyrrolidin-1-yl]-6-oxo-hexanoyl}-pyrrolidine-2-carboxylic acid diethylcarbamoyl-methyl ester]	9 ul/min/mg microsomal protein	73	2 ul/min/mg microsomal protein	90	0.2 h
CCCOC(=O)[C@H]1CCCN1C(=O)CCCCC(=O)N1CCC[C@@H]1C(=O)OCCC [Example 12, (R)-1-{6-Oxo-6-[(R)-2-propoxycarbonyl-pyrrolidin-1-yl]-hexanoyl}-pyrrolidine-2-carboxylic acid propyl ester]	253 ul/min/mg microsomal protein	12	73 ul/min/mg microsomal protein	18	
COC(=O)[C@H]1CCCN1C(=O)CCCCC(=O)N1CCC[C@@H]1C(=O)OC [Example 10, (R)-1-{6-[(R)-2-Methoxycarbonyl-pyrrolidin-1-yl]-6-oxo-hexanoyl}-pyrrolidine-2-carboxylic acid methyl ester]	9 ul/min/mg microsomal protein	79	2 ul/min/mg microsomal protein	90	1.3 h
CC(C)(C)NC(=O)COC(=O)[C@H]1CCCN1C(=O)CCCCC(=O)N1CCC[C@@H]1C(=O)OCC(=O)NC(C)(C)C [Example 4, (R)-1-{6-[(R)-2-(tert-Butylcarbamoyl-methoxycarbonyl)-pyrrolidin-1-yl]-6-oxo-hexanoyl}-pyrrolidine-2-carboxylic acid tert-butylcarbamoyl-methyl ester]	625 ul/min/mg microsomal protein	5	57 ul/min/mg microsomal protein	22	low
O=C(COC(=O)[C@H]1CCCN1C(=O)CCCCC(=O)N1CCC[C@@H]1C(=O)OCC(=O)NC1CC1)NC1CC1 [Example 5, (R)-1-{6-[(R)-2-(Cyclopropylcarbamoyl-methoxycarbonyl)-pyrrolidin-1-yl]-6-oxo-hexanoyl}-pyrrolidine-2-carboxylic acid cyclopropylcarbamoyl-methyl ester]	36 ul/min/mg microsomal protein	50	8 ul/min/mg microsomal protein	67	low
CN(C)C(=O)COC(=O)[C@H]1CCCN1C(=O)CCCCC(=O)N1CCC[C@@H]1C(=O)OCC(=O)N(C)C [Example 6, (R)-1-{6-[(R)-2-(Dimethylcarbamoyl-methoxycarbonyl)-pyrrolidin-1-yl]-6-oxo-hexanoyl}-pyrrolidine-2-carboxylic acid dimethylcarbamoyl-methyl ester]	7 ul/min/mg microsomal protein	84	1 ul/min/mg microsomal protein	96	0.8 h
CCOC(=O)[C@H]1CCCN1C(=O)CCCCC(=O)N1CCC[C@@H]1C(=O)OCC [Example 11, (R)-1-{6-[(R)-2-Ethoxycarbonyl-pyrrolidin-1-yl]-6-oxo-hexanoyl}-pyrrolidine-2-carboxylic acid ethyl ester]	46 ul/min/mg microsomal protein	44	5 ul/min/mg microsomal protein	77	0.4 h
NC(=O)COC(=O)[C@H]1CCCN1C(=O)CCCCC(=O)N1CCC[C@@H]1C(=O)OCC(N)=O [Example 1, (R)-1-[6-[(R)-2-Carbamoylmethoxycarbonyl-pyrrolidin-1-yl]-6-oxo-hexanoyl]-pyrrolidine-2-carboxylic acid carbamoylmethyl ester]	5 ul/min/mg microsomal protein	88	1 ul/min/mg microsomal protein	93	0.4 h
CC(C)NC(=O)COC(=O)[C@H]1CCCN1C(=O)CCCCC(=O)N1CCC[C@@H]1C(=O)OCC(=O)NC(C)C [Example 3, (R)-1-{6-[(R)-2-(Isopropylcarbamoyl-methoxycarbonyl)-pyrrolidin-1-yl]-6-oxo-hexanoyl}-pyrrolidine-2-carboxylic acid isopropylcarbamoyl-methyl ester]	82 ul/min/mg microsomal protein	30	16 ul/min/mg microsomal protein	50	low
C=CCNC(=O)COC(=O)[C@H]1CCCN1C(=O)CCCCC(=O)N1CCC[C@@H]1C(=O)OCC(=O)NCC=C [Example 2, (R)-1-[6-[(R)-2-Allylcarbamoylmethoxycarbonyl-pyrrolidin-1-yl]-6-oxo-hexanoyl]-pyrrolidine-2-carboxylic acid allylcarbamoylmethyl ester]	18 ul/min/mg microsomal protein	66	64 ul/min/mg microsomal protein	20	low
